The record followed here is ChEMBL document CHEMBL1201862, “PubChem BioAssay data set” (2004).

The EC50 is the concentration at which the effect is half-maximal. By IC50 is commonly meant the concentration that inhibits the measured activity by half. In general, CC50 refers to the concentration at which the toxic effect on the cells reaches its halfway point.

Structures are written as SMILES. The source made the active and inactive calls. A value given as a limit tells only on which side of the number the result lay.

A short description of test [1]: Luminescence Cell-Based Dose Response to Identify Activators of 5'UTR Stem-Loop Driven Prion Protein mRNA Translation in H4-C Neuroglioblastoma Cells. [Related pubchem assays: 1829 (Project Summary), 1814 (Primary HTS)]. Format: functional.
Test [2] in a line: Luminescence Cell-Based Dose Confirmation to Identify Activators of 5'UTR Stem-Loop Driven Alpha-Synuclein mRNA Translation in H4 Neuroglioblastoma Cells. [Related pubchem assays: 1829 (Project Summary), 1814 (Primary HTS)]. The class given is functional.
The target of test [3] is T1, Oxysterols receptor LXR-beta (Homo sapiens, UniProt P55055).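 Also: agonist activity at LXR measured by a cell-based luminescence readout across a dose range, run as a counterscreen for daf-12 agonists; HEK293 cells with Gal4-LXR fusion and GAL4-driven luciferase reporter; potency for activation of Gal4-LXR reporter so compounds are agonists.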
T1 sequence (P55055 whole entry): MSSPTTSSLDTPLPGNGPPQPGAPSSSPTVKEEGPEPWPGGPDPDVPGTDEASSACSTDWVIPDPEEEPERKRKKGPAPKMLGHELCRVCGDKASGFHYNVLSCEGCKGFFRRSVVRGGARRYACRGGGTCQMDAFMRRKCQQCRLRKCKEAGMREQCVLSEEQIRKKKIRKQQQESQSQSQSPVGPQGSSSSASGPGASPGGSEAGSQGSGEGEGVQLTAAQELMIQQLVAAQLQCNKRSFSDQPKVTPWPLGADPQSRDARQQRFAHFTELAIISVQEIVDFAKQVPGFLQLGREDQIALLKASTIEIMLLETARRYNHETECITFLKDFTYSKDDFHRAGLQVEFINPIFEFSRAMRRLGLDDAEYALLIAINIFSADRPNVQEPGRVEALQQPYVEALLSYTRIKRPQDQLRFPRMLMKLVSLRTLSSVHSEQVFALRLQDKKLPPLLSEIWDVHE
Format: functional, cell-based.

The nature of test [4]: Luminescence Cell-Based Dose Response HTS to Identify Activators of Luciferase Translation or Activity in H4 […] Cells. [Related pubchem assays: 1829 (Project Summary), 1814 (Primary HTS)]. Format: functional.
Test [5] can be described thus: Luminescence Cell-Based Dose Response to Identify Activators of Luciferase Translation or Activity in H4-C Neuroglioblastoma Cells. [Related pubchem assays: 1829 (Project Summary), 1814 (Primary HTS)]. The class given is functional.
For test [6], the system named is H4. The experiment in a line: Luminescence Cell-Based Dose Response HTS to Identify Activators of 5'UTR Stem-Loop Driven Prion Protein mRNA Translation in H4 Neuroglioblastoma Cells. [Related pubchem assays: 1829 (Project Summary), 1814 (Primary HTS)]. Format: functional. The conditions noted are these: Homo sapiens.
A short description of test [7]: cells.
Test [8] is described as follows: viability of uninfected HEp-2 cells – cell-based, HTS, cytotoxicity control for RSV inhibitor project, dose response (AID 2410). The class given is functional. The conditions noted are these: human respiratory syncytial virus.
Test [9] relates to Vero. The experiment in a line: inhibition of WNV-induced cytopathic effect – cell-based, CPE readout (AID 1621). The conditions noted are these: Chlorocebus sabaeus. Format: functional.
Test [10] deals with Vero. Put plainly: cells. The class given is functional, cell-based. The conditions noted are these: Chlorocebus sabaeus.
For test [11], the system named is Vero. Put plainly: cells. The conditions noted are these: Chlorocebus sabaeus. Format: functional.
The nature of test [12]: HPDE-C7 pancreatic duct cell viability loss – fluorescence, HTS (AID 430). The conditions noted are these: Homo sapiens. The class given is functional, cell-based.
Test [13] is described as follows: viability loss of HPDE-C7K cells – cell-based, fluorescence, HTS, primary screen (AID 431). Format: functional. The conditions noted are these: Homo sapiens.
Test [14] addresses Ubiquitin carboxyl-terminal hydrolase BAP1 (Homo sapiens, UniProt Q92560). Put plainly: inhibition of BAP1 ubiquitin hydrolase activity – biochemical, dose response (AID 714). Format: functional.
Test [15] addresses Voltage-gated inwardly rectifying potassium channel KCNH2 (Homo sapiens, UniProt Q12809). Put plainly: concentration-dependent hERG rescue from blockers – cell-based, thallium flux, dose response (AID 2121). Format: ADME. In general terms: hERG is a cardiac potassium channel; its block is linked to QT prolongation.
Test [16] deals with T2, Heat shock factor protein 1 (Mus musculus, UniProt P38532).
T2 sequence (P38532 whole entry): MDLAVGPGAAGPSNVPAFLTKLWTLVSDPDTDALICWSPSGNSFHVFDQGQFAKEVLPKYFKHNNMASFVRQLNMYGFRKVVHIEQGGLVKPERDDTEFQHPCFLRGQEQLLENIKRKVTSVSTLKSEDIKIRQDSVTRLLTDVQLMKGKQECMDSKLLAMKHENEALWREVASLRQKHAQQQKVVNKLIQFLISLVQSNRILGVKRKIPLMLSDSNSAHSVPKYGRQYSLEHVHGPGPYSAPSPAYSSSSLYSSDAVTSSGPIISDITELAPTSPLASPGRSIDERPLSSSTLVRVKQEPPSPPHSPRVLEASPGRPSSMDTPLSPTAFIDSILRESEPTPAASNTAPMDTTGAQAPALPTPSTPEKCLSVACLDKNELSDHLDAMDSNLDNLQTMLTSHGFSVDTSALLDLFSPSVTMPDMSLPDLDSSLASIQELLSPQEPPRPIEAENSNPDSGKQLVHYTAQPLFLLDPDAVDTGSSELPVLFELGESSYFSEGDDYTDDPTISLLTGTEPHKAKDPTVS
Put plainly: decrease of HSF1-responsive luciferase luminescence – cell-based, NIH3T3, dose retest, confirmation (AID 2382).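 Also: NIH3T3 fibroblasts with HSF1-driven luciferase reporter stressed by proteasome inhibitor MG132; luminescence from HSF1-driven luciferase expression after 8 hours of MG132 stress.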 The class given is functional.

Test [17] deals with Potassium voltage-gated channel subfamily KQT member 2 (Rattus norvegicus, UniProt O88943, W236L). Put plainly: potentiation of rat KCNQ2 current – cell-based, automated electrophysiology, mechanism study for KCNQ2 potentiator project, dose response (AID 2603). Format: functional.
Potassium voltage-gated channel subfamily KQT member 2, sequence (O88943 whole entry W236L): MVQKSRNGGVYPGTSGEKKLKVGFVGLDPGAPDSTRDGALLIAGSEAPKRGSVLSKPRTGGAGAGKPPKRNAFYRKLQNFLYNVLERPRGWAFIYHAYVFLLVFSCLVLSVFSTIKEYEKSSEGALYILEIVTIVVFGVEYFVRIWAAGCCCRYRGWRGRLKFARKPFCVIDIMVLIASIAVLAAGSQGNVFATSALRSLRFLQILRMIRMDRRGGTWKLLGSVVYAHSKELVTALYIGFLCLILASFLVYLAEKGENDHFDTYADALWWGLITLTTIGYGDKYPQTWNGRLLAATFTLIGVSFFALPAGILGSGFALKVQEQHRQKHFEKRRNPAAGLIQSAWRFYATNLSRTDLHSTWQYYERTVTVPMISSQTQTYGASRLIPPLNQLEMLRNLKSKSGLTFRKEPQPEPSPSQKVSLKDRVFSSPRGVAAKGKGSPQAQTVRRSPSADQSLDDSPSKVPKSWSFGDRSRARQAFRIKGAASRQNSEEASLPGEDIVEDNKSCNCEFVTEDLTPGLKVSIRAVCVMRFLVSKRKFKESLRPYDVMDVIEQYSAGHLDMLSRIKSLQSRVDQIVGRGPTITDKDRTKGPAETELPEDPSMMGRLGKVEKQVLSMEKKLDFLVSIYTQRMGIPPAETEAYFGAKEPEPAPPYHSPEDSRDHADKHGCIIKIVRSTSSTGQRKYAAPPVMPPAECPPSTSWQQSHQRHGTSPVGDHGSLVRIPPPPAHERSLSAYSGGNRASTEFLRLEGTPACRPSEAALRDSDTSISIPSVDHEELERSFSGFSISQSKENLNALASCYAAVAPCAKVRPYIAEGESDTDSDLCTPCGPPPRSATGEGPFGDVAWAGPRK

Ubiquitin carboxyl-terminal hydrolase BAP1, sequence (Q92560 whole entry): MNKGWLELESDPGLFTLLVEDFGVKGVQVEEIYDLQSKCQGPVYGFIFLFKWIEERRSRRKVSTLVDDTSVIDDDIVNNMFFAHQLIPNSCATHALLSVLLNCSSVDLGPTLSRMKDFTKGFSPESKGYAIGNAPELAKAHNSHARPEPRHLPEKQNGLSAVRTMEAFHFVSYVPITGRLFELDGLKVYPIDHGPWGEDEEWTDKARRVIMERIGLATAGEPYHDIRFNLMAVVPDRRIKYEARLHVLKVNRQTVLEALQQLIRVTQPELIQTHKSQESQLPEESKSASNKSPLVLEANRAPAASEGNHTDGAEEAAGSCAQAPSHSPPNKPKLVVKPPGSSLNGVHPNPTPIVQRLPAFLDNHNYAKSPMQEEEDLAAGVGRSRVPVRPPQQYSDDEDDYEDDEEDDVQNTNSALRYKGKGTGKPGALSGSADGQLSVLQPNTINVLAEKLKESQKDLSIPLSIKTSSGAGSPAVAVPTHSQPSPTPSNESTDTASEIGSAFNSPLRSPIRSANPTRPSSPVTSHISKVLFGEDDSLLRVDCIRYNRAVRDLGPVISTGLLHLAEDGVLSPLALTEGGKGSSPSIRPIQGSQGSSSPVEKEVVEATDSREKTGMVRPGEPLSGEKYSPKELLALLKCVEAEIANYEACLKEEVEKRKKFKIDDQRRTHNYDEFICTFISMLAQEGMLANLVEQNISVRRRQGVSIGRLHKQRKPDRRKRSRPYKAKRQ
Voltage-gated inwardly rectifying potassium channel KCNH2, sequence (Q12809 whole entry): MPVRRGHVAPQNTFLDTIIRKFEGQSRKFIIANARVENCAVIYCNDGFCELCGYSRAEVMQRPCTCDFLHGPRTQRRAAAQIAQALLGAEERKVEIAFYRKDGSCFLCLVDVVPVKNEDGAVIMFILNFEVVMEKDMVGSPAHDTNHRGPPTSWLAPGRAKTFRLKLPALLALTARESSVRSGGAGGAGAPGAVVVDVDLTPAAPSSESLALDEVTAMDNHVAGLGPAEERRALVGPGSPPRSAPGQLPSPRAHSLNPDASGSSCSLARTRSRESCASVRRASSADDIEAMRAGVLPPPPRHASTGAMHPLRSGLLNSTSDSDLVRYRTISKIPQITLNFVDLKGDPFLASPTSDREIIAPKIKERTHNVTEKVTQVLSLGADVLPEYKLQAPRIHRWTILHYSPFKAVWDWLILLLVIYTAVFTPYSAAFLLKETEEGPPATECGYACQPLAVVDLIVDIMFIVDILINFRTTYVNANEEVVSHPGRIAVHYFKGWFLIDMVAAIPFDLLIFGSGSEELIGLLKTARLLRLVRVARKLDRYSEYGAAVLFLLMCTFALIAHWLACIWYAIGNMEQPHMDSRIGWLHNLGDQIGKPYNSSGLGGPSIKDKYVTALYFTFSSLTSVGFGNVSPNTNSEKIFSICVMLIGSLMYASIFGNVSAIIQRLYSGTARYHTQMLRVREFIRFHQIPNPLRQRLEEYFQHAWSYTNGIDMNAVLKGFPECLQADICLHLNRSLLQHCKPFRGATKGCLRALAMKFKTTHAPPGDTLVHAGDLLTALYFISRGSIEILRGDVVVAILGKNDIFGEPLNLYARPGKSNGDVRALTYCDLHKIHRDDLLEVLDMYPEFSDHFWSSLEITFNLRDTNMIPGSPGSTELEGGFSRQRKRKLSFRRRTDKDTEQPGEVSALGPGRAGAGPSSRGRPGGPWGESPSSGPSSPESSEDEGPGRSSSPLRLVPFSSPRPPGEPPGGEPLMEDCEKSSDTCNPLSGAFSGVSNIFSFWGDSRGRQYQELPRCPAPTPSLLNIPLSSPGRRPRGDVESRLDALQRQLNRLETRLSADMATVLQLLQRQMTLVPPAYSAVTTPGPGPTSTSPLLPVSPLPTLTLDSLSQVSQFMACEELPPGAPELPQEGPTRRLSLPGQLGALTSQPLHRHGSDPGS

Turning to `CCOC(=O)c1c[nH]nc1N=C(S)Nc1ccccc1`, the EC50 in test [1] was 0.352 µM (active); in [2], 0.38 µM (active); in test [3], > 67.6 µM (inactive); in test [4], < 0.1 µM (active); in test [5] it was 0.324 µM (active); in test [6], > 120 µM (not active).
Consider `Cc1c(NC(=O)COC(=O)c2cc(-c3ccc(-c4ccccc4)cc3)nc3ccccc23)c(=O)n(-c2ccccc2)n1C`, for which the IC50 in test [7] was 0.53 µM (active); in test [9] it was 21.1 µM (active); in test [10], 2.09 µM (active). For the same molecule, the CC50 in test [8] is 2.93 µM (active); in test [11], 11.5 µM (active).
As for `Cc1sc(NC(=O)CSc2nnc3scc(-c4ccccc4)n23)c(C#N)c1C`, the EC50 in test [12] is 8.93 µM (active); in [13] it was 8.96 µM (active). Besides, the IC50 in test [14] is on record as > 50 µM (not active).
For `O=C(/C=C/c1ccccc1)CC(=O)c1ccccc1O`, the EC50 in [15] is 2.67 µM (active).
For the molecule `Clc1ccc(Nc2ccc(Cl)nn2)cc1`, the EC50 is > 195 µM (not active) in [16] and 7.86 µM (active) in test [17].
